Results reported in patent publication US4493828A, “Use of thyrotropin releasing hormone and related peptides as poultry growth promotants” (Merck & Co., Inc., priority 1982, dated 1985).

System: 4-week-old Hubbard×Hubbard cockerels
Assay: Example 2: effect of TRH on growth in 4-week-old male chicks (25 days)
Assay type: in vivo, chicken
Description: Four-week-old Hubbard×Hubbard cockerels were used in this experiment, and average weight was 831.38 g. Synthetic TRH (Beckman Co., CA) was dissolved in saline and given daily by intravenous injection via the brachial vein at 0.1 μg/bird, 1.0 μg/bird, and 10 μg/ bird. Birds were weighed twice a week for 4 weeks. Data were analyzed by least squares of variance, using initial weight as a covariant.

[1] = TRH (high) 10 μg/bird daily intravenous, day 11 after start of treatment
[2] = TRH (high) 10 μg/bird daily intravenous, day 15 after start of treatment
[3] = TRH (high) 10 μg/bird daily intravenous, day 18 after start of treatment
[4] = TRH (high) 10 μg/bird daily intravenous, day 22 after start of treatment
[5] = TRH (high) 10 μg/bird daily intravenous, day 25 after start of treatment
[6] = TRH (low) 0.1 μg/bird daily intravenous, day 4 after start of treatment
[7] = TRH (low) 0.1 μg/bird daily intravenous, day 8 after start of treatment
[8] = TRH (low) 0.1 μg/bird daily intravenous, day 11 after start of treatment
[9] = TRH (low) 0.1 μg/bird daily intravenous, day 15 after start of treatment
[10] = TRH (low) 0.1 μg/bird daily intravenous, day 18 after start of treatment
[11] = TRH (low) 0.1 μg/bird daily intravenous, day 18 after start of treatment, p < 0.1
[12] = TRH (low) 0.1 μg/bird daily intravenous, day 22 after start of treatment
[13] = TRH (low) 0.1 μg/bird daily intravenous, day 22 after start of treatment, p < 0.1
[14] = TRH (low) 0.1 μg/bird daily intravenous, day 25 after start of treatment, p < 0.1
[15] = TRH (med.) 1.0 μg/bird daily intravenous, day 4 after start of treatment
[16] = TRH (med.) 1.0 μg/bird daily intravenous, day 8 after start of treatment
[17] = TRH (med.) 1.0 μg/bird daily intravenous, day 11 after start of treatment
[18] = TRH (med.) 1.0 μg/bird daily intravenous, day 15 after start of treatment
[19] = TRH (med.) 1.0 μg/bird daily intravenous, day 18 after start of treatment
[20] = TRH (med.) 1.0 μg/bird daily intravenous, day 18 after start of treatment, p < 0.1
[21] = TRH (med.) 1.0 μg/bird daily intravenous, day 22 after start of treatment
[22] = TRH (med.) 1.0 μg/bird daily intravenous, day 22 after start of treatment, p < 0.05
[23] = TRH (med.) 1.0 μg/bird daily intravenous, day 25 after start of treatment, p<0.025

NC(=O)[C@@H]1CCCN1C(=O)[C@H](Cc1c[nH]cn1)NC(=O)[C@@H]1CCC(=O)N1 [TRH, Glp--His--Pro--NH2]
body weight, percent increased as compared with control (TRH (high) 10 μg/bird daily intravenous, day 8 after start of treatment): 0% | body weight gain [1]: 542.9 ± 20.5 g | body weight gain, percent increase as compared with control [1]: 0% | body weight, least squares mean ± standard error of the mean corrected by initial weight [1]: 1381.7 ± 20.3 g | body weight, percent increased as compared with control [1]: 0% | body weight gain [2]: 786.4 ± 20.4 g | body weight gain, percent increase as compared with control [2]: 0.9% | body weight, least squares mean ± standard error of the mean corrected by initial weight [2]: 1627.6 ± 20.4 g | body weight, percent increased as compared with control [2]: 0.4% | body weight gain [3]: 981.5 ± 24.3 g | body weight gain, percent increase as compared with control [3]: 2.7% | body weight, least squares mean ± standard error of the mean corrected by initial weight [3]: 1821.6 ± 24.2 g | body weight, percent increased as compared with control [3]: 1.4% | body weight gain [4]: 1193.2 ± 26.3 g | body weight gain, percent increase as compared with control [4]: 2.1% | body weight, least squares mean ± standard error of the mean corrected by initial weight [4]: 2034.4 ± 26.3 g | body weight, percent increased as compared with control [4]: 1.2% | body weight gain [5]: 1390.9 ± 28.7 g | body weight gain, percent increase as compared with control [5]: 2.9% | body weight, least squares mean ± standard error of the mean corrected by initial weight [5]: 2232.1 ± 28.7 g | body weight, percent increased as compared with control [5]: 1.7% | body weight gain [6]: 167.1 ± 8.4 g | body weight gain, percent increase as compared with control [6]: 11.8% | body weight, least squares mean ± standard error of the mean corrected by initial weight [6]: 1012.2 ± 8.3 g | body weight, percent increased as compared with control [6]: +2.2% | body weight gain [7]: 407.6 ± 15.1 g | body weight gain, percent increase as compared with control [7]: 7.8% | body weight, least squares mean ± standard error of the mean corrected by initial weight [7]: 1248 ± 15.0 g | body weight, percent increased as compared with control [7]: +2.4% | body weight gain [8]: 585.1 ± 20.5 g | body weight gain, percent increase as compared with control [8]: 7.0% | body weight, least squares mean ± standard error of the mean corrected by initial weight [8]: 1426.4 ± 20.3 g | body weight, percent increased as compared with control [8]: +2.8% | body weight gain [9]: 822.9 ± 20.4 g | body weight gain, percent increase as compared with control [9]: 5.6% | body weight, least squares mean ± standard error of the mean corrected by initial weight [9]: 1664.2 ± 20.4 g | body weight, percent increased as compared with control [9]: +2.7% | body weight gain, percent increase as compared with control [10]: 6.3% | body weight, percent increased as compared with control [10]: +3.3% | body weight gain [11]: 1015.8 ± 24.3 g | body weight, least squares mean ± standard error of the mean corrected by initial weight [11]: 1856.9 ± 24.2 g | body weight gain, percent increase as compared with control [12]: 6.4% | body weight, percent increased as compared with control [12]: 3.7% | body weight gain [13]: 1243.5 ± 26.3 g | body weight, least squares mean ± standard error of the mean corrected by initial weight [13]: 2084.7 ± 26.3 g | body weight, percent increased as compared with control (TRH (low) 0.1 μg/bird daily intravenous, day 25 after start of treatment): 3.4% | body weight gain, percent increase as compared with control (TRH (low) 0.1 μg/bird daily intravenous, day 25 after start of treatment (end of experiment)): 5.6% | body weight gain [14]: 1428.1 g | body weight, least squares mean ± standard error of the mean corrected by initial weight [14]: 2269.3 g | body weight gain [15]: 170.1 ± 7.9 g | body weight gain, percent increase as compared with control [15]: 13.9% | body weight, least squares mean ± standard error of the mean corrected by initial weight [15]: 1010.3 ± 7.8 g | body weight, percent increased as compared with control [15]: +2.0% | body weight gain [16]: 413.4 ± 14.2 g | body weight gain, percent increase as compared with control [16]: 9.3% | body weight, least squares mean ± standard error of the mean corrected by initial weight [16]: 1254.1 ± 14.2 g | body weight, percent increased as compared with control [16]: +2.8% | body weight gain [17]: 573.1 ± 19.3 g | body weight gain, percent increase as compared with control [17]: 4.5% | body weight, least squares mean ± standard error of the mean corrected by initial weight [17]: 1415.4 ± 19.1 g | body weight, percent increased as compared with control [17]: +2.0% | body weight gain [18]: 823.2 ± 19.2 g | body weight gain, percent increase as compared with control [18]: 5.7% | body weight, least squares mean ± standard error of the mean corrected by initial weight [18]: 1664.4 ± 19.2 g | body weight, percent increased as compared with control [18]: +2.7% | body weight gain, percent increase as compared with control [19]: 6.6% | body weight, percent increased as compared with control [19]: +3.5% | body weight gain [20]: 1018.9 ± 22.9 g | body weight, least squares mean ± standard error of the mean corrected by initial weight [20]: 1860.1 ± 22.8 g | body weight gain, percent increase as compared with control [21]: 7.0% | body weight, percent increased as compared with control [21]: 4.1% | body weight gain [22]: 1250.5 ± 24.8 g | body weight, least squares mean ± standard error of the mean corrected by initial weight [22]: 2091.7 ± 24.8 g | body weight, percent increased as compared with control (TRH (med.) 1.0 μg/bird daily intravenous, day 25 after start of treatment): 4.6% | body weight gain, percent increase as compared with control (TRH (med.) 1.0 μg/bird daily intravenous, day 25 after start of treatment (end of experiment)): 7.5% | body weight gain [23]: 1453.2 g | body weight, least squares mean ± standard error of the mean corrected by initial weight [23]: 2294.4 g
